This note sets out measurements from ChEMBL document CHEMBL1159117, “Anti-invasive and anti-angiogenic activities of naturally occurring dibenzodiazepine BU-4664L and its derivatives” (Bioorg Med Chem Lett, 2010).

SMILES strings stand for the structures. Converted amounts (≈) assume the structure as drawn.

Series [1] can be described thus: Antiinvasive activity against mouse Colon 26-L5 by Matrigel assay. It is filed as functional.
Series [2] can be described thus: Antiinvasive activity against mouse Colon 26-L5 at >1 ug/ml by Matrigel assay. It is filed as functional.
Series [3] deals with Renca. Kind of series: Antiinvasive activity against mouse Renca by Matrigel assay. It is filed as functional, cell-based.
The test system of series [4] is Renca. Kind of series: Antiinvasive activity against mouse Renca at >1 ug/ml by Matrigel assay. It is filed as functional.
The nature of series [5]: Cytotoxicity against mouse Colon 26-L5 cells. It counts as functional, cell-based.
The subject of series [6] is Renca. Kind of series: Cytotoxicity against mouse Renca cells. It counts as functional, cell-based.
In series [7] the test system is Renca. Briefly: Cytotoxicity against mouse Renca cells at >10 ug/ml. It counts as functional.
The test system of series [8] is HUVEC. Briefly: Cytotoxicity against HUVEC cells. It is filed as cell-based. The conditions noted are these: Homo sapiens.
Series [9] in a line: Cytotoxicity against HUVEC cells at >10 ug/ml. The conditions noted are these: human, read-out: INH. It counts as cell-based.
For series [10], the system named is HUVEC. Briefly: Antiangiogenic activity against HUVEC cells assessed as inhibition of vascular formation after 6 hrs by […]. The conditions noted are these: Homo sapiens. It is filed as functional, cell-based.
Series [11] relates to HUVEC. Briefly: Antiangiogenic activity against HUVEC cells assessed as inhibition of vascular formation at >1 ug/ml after 6 hrs by […]. It counts as functional, Homo sapiens.
The nature of series [12]: Cytotoxicity against mouse Colon 26-L5 cells at >1 ug/ml. It counts as functional.
The nature of series [13]: Antiinvasive activity against mouse Colon 26-L5 assessed as inhibition of cell migration after 6 hrs by Matrigel assay. It is filed as functional.
A short description of series [14]: Antiinvasive activity against mouse Colon 26-L5 assessed as inhibition of cell migration at >1 ug/ml after 6 hrs by Matrigel assay. It is filed as functional.
For series [15], the system named is HUVEC. Kind of series: Antiinvasive activity against HUVEC assessed as inhibition of cell migration after 6 hrs by Matrigel assay. It counts as functional, cell-based. The conditions noted are these: Homo sapiens.
In series [16] the target is 72 kDa type IV collagenase (Homo sapiens, UniProt P08253). Briefly: Inhibition of MMP2.
Sequence of 72 kDa type IV collagenase (P08253 whole entry): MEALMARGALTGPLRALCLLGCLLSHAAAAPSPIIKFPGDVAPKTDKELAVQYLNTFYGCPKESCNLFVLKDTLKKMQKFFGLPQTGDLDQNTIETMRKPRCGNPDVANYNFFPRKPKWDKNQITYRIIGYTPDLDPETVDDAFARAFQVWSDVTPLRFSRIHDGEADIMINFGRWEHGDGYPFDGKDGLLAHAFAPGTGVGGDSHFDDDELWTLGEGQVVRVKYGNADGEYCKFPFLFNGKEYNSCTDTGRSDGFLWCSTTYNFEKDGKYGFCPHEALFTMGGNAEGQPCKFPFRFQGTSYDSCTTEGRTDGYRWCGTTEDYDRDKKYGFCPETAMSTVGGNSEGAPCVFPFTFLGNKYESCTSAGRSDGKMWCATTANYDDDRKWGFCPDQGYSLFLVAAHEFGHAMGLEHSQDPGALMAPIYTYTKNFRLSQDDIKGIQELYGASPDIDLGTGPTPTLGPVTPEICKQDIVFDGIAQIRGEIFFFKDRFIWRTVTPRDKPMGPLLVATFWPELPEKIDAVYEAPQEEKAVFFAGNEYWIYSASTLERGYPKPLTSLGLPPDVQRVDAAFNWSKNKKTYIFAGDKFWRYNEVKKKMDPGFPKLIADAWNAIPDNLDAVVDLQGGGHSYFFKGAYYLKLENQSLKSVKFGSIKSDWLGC
Series [17] addresses Matrix metalloproteinase-9 (Homo sapiens, UniProt P14780). Briefly: Inhibition of MMP9.

Sequence of Matrix metalloproteinase-9 (P14780 whole entry): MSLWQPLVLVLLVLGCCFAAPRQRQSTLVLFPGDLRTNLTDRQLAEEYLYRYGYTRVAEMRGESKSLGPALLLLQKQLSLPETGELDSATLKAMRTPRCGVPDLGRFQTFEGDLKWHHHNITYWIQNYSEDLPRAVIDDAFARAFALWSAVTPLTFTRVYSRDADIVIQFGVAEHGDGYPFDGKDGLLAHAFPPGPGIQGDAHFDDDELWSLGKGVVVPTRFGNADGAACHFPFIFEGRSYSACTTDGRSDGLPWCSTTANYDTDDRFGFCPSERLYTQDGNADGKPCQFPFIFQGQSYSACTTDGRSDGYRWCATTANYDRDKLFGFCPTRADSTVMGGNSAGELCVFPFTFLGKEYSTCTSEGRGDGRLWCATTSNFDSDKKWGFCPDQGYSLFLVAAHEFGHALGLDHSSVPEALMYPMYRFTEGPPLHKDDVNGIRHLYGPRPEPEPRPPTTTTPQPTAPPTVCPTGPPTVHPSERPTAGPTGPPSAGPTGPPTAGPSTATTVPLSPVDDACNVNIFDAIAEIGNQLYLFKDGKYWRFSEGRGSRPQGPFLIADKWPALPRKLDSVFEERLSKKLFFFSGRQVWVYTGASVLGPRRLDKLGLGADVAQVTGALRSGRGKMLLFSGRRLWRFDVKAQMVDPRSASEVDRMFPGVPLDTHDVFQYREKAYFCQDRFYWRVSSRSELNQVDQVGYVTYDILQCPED

`CC(=O)Oc1cc(OC(C)=O)c2c(c1)N(C/C=C(\C)CC/C=C(\C)CCC=C(C)C)C(=O)c1cccc(OC(C)=O)c1N2`: the IC50 (in general, the concentration needed to halve the response being measured) in series [1] is over 1 µg/mL; in the series with Renca [3], over 1 µg/mL; in [5] it was 7.6 µg/mL (≈ 12.9 µM); in the series with Renca [6] it was over 10 µg/mL; with HUVEC [8], over 10 µg/mL; in the series on HUVEC [10], over 1 µg/mL. The “inhibition (INH)” value in series [2] is 0%; with Renca [4], 40%; in the series on Renca [7], 0%; with HUVEC [11], 0%. For the same compound, the cytotoxicity in [9] came out at 0%.

With `COc1cc(OC)c2c(c1)N(CCC(C)CCCC(C)CCCC(C)C)C(=O)c1cccc(OC)c1N2` (stereo not drawn), the IC50 was 1 µg/mL (≈ 1.96 µM) in series [1]; 1 µg/mL (≈ 1.96 µM) in the series with Renca [3]; over 10 µg/mL in series [5]; over 10 µg/mL in the series with Renca [6]; over 10 µg/mL in the series with HUVEC [8]; over 1 µg/mL in the series on HUVEC [10]. Further, the “inhibition (INH)” value is 44% with Renca [4], 8% in series [12], 31% with Renca [7] and 30% with HUVEC [11]. Also, the cytotoxicity in series [9] worked out at 32%.

`CC(C)CCCC(C)CCCC(C)CCN1C(=O)c2cccc(O)c2Nc2c(O)cc(O)cc21` (stereo not drawn): the concentration for half-maximal inhibition (IC50) is over 1 µg/mL in [1]; over 1 µg/mL in the series with Renca [3]; 10 µg/mL (≈ 21.3 µM) in series [5]; over 10 µg/mL with Renca [6]; over 10 µg/mL in the series on HUVEC [8]; over 1 µg/mL in series [13]. Moreover, the IC50 with HUVEC [10] amounted to 0.23 µg/mL (≈ 0.491 µM); with HUVEC [15], 0.0024 µg/mL (≈ 0.00512 µM). Besides, the “inhibition (INH)” value is listed as 30% in series [2], 40% with Renca [4], 0% in the series on Renca [7] and 22% in series [14]. In addition, in [9], the cytotoxicity came out at 0%.

In the case of `COc1cc(OC)c2c(c1)N(C/C=C(\C)CC/C=C(\C)CCC=C(C)C)C(=O)c1cccc(OC)c1N2`, the IC50 in series [1] was 1 µg/mL (≈ 1.98 µM); in the series with Renca [3], 0.78 µg/mL (≈ 1.55 µM); in series [5], over 10 µg/mL; in the series with Renca [6] it was over 10 µg/mL; in the series on HUVEC [8], over 10 µg/mL; in series [13], 0.67 µg/mL (≈ 1.33 µM). Also, the IC50 worked out at 0.11 µg/mL (≈ 0.218 µM) in the series with HUVEC [10] and 0.0076 µg/mL (≈ 0.0151 µM) in the series with HUVEC [15]. Further, the figures for the “inhibition (INH)” value (in series [12]; with Renca [7]) were 30% and 40%, respectively. Moreover, in series [9], the cytotoxicity is 0%.

With `CC(C)=CCC/C(C)=C/CC/C(C)=C/CN1C(=O)c2cccc(O)c2Nc2c(O)cc(O)cc21` [DIAZEPINOMICIN], the IC50 in series [1] amounted to 1 µg/mL (≈ 2.16 µM); in the series with Renca [3] it was 0.78 µg/mL (≈ 1.69 µM); in [5], 7.8 µg/mL (≈ 16.9 µM); in the series on Renca [6] it was 8.3 µg/mL (≈ 17.9 µM); with HUVEC [8] it was 2 µg/mL (≈ 4.32 µM); in series [13], 0.63 µg/mL (≈ 1.36 µM). For the same compound, the IC50 with HUVEC [10] was 0.72 µg/mL (≈ 1.56 µM); in series [16], 0.994 µM; in [17], 1.3 µM; in the series on HUVEC [15] it was 0.43 µg/mL (≈ 0.93 µM).

As to `CO[C@@H]1[C@H](OC(=O)/C=C/C=C/C=C/C=C/C(=O)O)CC[C@]2(CO2)[C@H]1[C@@]1(C)O[C@@H]1CC=C(C)C` [FUMAGILLIN], the figures for the concentration for half-maximal inhibition (IC50) in the series on HUVEC [10] and in the series with HUVEC [15] were 0.034 µg/mL (≈ 0.0741 µM) and 0.023 µg/mL (≈ 0.0502 µM), respectively.
